# Assays:
# Type in all cases: in vivo, human
# [1] = Euglycaemic hyperinsulinaemic clamp with intravenous L-carnitine infusion: serum insulin and whole body glucose disposal; details: for whole body glucose disposal: mean±SEM
# Experimental: (§1) Seven healthy, non-vegetarian young men (age 22.4±1.5 yr, body mass 84.3±5.0 kg, body mass index […]) participated in the study. Each subject reported to the laboratory at 8 am on two occasions, separated by a 2-week “wash out” period, and voided their bladder. All subjects had abstained from carnitine containing foods, alcohol, and strenuous exercise for the previous 24 hours. On arrival, subjects were asked to rest in a supine position on a bed while a cannula was inserted retrogradely in to a superficial vein on the dorsal surface of the non-dominant hand. This hand was kept in a hand-warming unit (air temperature 50-55° C.) to arterialize the venous drainage of the hand, and a saline drip was attached to keep the cannula patent. A second cannula was placed in an antecubital vein in the non-dominant forearm for the infusion of insulin and glucose, and a third cannula was inserted into an antecubital vein in the opposite arm for infusion of L-carnitine.
# (§2) On each experimental visit, a 6 hour (h) euglycaemic hyperinsulinaemic insulin (human Actrapid, Novo Nordisk, Denmark) clamp was performed, whilst maintaining a fasting blood glucose concentration of 4.47±0.01 mmol·l^−1. The insulin clamp began at t=0 at a rate of 105 mlU·m^−2·min^−1 with the aim of achieving steady state hyperinsulinaemic (˜150 mlU·l^−1) serum insulin concentration throughout each visit. […]
# (§3) During each experimental visit, 1 ml of arterialized venous (a-v) blood was obtained every 5 min for monitoring blood glucose concentration (YSI 2300 STATplus, Yellow Springs Instruments, Ohio). […] These samples were then stored at −80° C. and analyzed at a later date for free fatty acid (FFA) concentration, using an enzymatic-colorimetric assay kit (NEFA C kit, WAKO Chemicals, Germany), and total carnitine (TC) concentration, using the radioenzymatic assay described previously by Cederblad et al (1982). […] Insulin was measured in these samples at a later date with a radioammunoassy kit (Coat-a-Count Insulin, DPC, Ca, USA). […]
# [2] = Muscle metabolites (glycogen, lactate, glucose-6-phosphate, long-chain acyl-CoA) in biopsy samples; details: for muscle LCACoA content greater than CON: following morning (24 h), CARN vs CON, P<0.05
# Experimental: as §1
# (§4) On each experimental visit, a 6 hour (h) euglycaemic hyperinsulinaemic insulin (human Actrapid, Novo Nordisk, Denmark) clamp was performed, whilst maintaining a fasting blood glucose concentration of 4.47±0.01 mmol·l^−1. The insulin clamp began at t=0 at a rate of 105 mlU·m^−2·min^−1 with the aim of achieving steady state hyperinsulinaemic (˜150 mlU·l^−1) serum insulin concentration throughout each visit. Following a 1 hour equilibration period, a 5 hour intravenous infusion of 60 mM L-carnitine (CARN) (Lonza Ltd, Basel, Switzerland) or the equivalent volume of saline (CON) began, in randomised manner, in conjunction with the insulin clamp. At the onset of L-carnitine infusion a bolus dose of 15 mg·kg^−1 was administered over 10 minutes (min) in order to rapidly reach a supraphysiological plasma concentration of ˜500 μmol·l^−1. This was followed by a constant infusion at 10 mg·kg^−1·h^−1 for the next […] to maintain hypercarnitinaemia. At t=6 h, the insulin and L-carnitine infusions were stopped, whereas the glucose infusion was continued for approximately 80 min in order to stabilise blood glucose concentration. During this time, on each visit, subjects were fed the same standardised, carnitine-free meal.
# (§5) Muscle biopsy samples were obtained from the vastus lateralis muscle immediately before and after each insulin clamp, and the following morning, using the percutaneous needle biopsy technique, and were snap frozen in liquid nitrogen less than 5 seconds after removal from the limb. One portion of the sample was subsequently freeze-dried and stored at −80° C., and the remainder was stored “wet” in liquid nitrogen. After removal of visible blood and connective tissue, the freeze-dried muscle samples were powdered, and free carnitine (FC), acetylcarnitine (AC), long-chain acylcarnitine (LCAC), and long-chain acyl-CoA (LCACoA) contents were determined radioenzymatically using a modified version of the radioenzymatic method of Cederblad et al (1990). Values were subsequently summed in order to calculate muscle TC. To reduce the variance in non-muscle constituents, muscle carnitine content was adjusted for the highest total creatine content from each pair of samples. Total creatine was calculated as the sum of free creatine and phosphocreatine content determined spectrophotometrically using the method of Harris et al (1974). Muscle glycogen, glucose-6-phosphate (G-6-P), and lactate content was also determined using a modified version of the spectrophotometric method of Harris et al (1974).
# (§6) A two-way ANOVA (time and treatment effects; GraphPad Prism 4.02, GraphPad Software Inc, CA) was performed to locate differences in serum insulin, plasma carnitine, plasma FFA, and blood glucose concentrations as well as muscle PDC activity and carnitine, long-chain acyl-CoA, glycogen, lactate, and glucose-6-phosphate content. When a significant main effect was detected, data were further analysed with Student's paired t tests using the Bonferroni correction. […]
# [3] = Skeletal muscle carnitine content (vastus lateralis biopsy, radioenzymatic)
# Experimental: as §1, §4, §5, §6
# [4] = Plasma free fatty acid (FFA) concentration during L-carnitine infusion with insulin clamp; details: not significantly different from CON
# Experimental: Seven healthy, non-vegetarian young men (age 22.4±1.5 yr, body mass 84.3±5.0 kg, body mass index […]) participated in the study. Each subject reported to the laboratory at 8 am on two occasions, separated by a 2-week “wash out” period, and voided their bladder. All subjects had abstained from carnitine containing foods, alcohol, and strenuous exercise for the previous 24 hours. On arrival, subjects were asked to rest in a supine position on a bed while a cannula was inserted retrogradely in to a superficial vein on the dorsal surface of the non-dominant hand. This hand was kept in a hand-warming unit (air temperature 50-55° C.) to arterialize the venous drainage of the hand, and a saline drip was attached to keep the cannula patent. […]
# as §3
# [5] = test system: pyruvate dehydrogenase complex (PDC); test: Muscle pyruvate dehydrogenase complex (PDC) activity in biopsy samples; details: for post infusion PDC activity less than CON: CARN vs CON, P<0.05; for muscle PDC activity: post infusion/clamp
# Experimental: as §1, §2
# Muscle biopsy samples were obtained from the vastus lateralis muscle immediately before and after each insulin clamp, and the following morning, using the percutaneous needle biopsy technique, and were snap frozen in liquid nitrogen less than 5 seconds after removal from the limb. […] After removal of visible blood and connective tissue, the freeze-dried muscle samples were powdered, and free carnitine (FC), acetylcarnitine (AC), long-chain acylcarnitine (LCAC), and long-chain acyl-CoA (LCACoA) contents were determined radioenzymatically using a modified version of the radioenzymatic method of Cederblad et al (1990). […] Total creatine was calculated as the sum of free creatine and phosphocreatine content determined spectrophotometrically using the method of Harris et al (1974). Muscle glycogen, glucose-6-phosphate (G-6-P), and lactate content was also determined using a modified version of the spectrophotometric method of Harris et al (1974).
# The remainder of the frozen muscle was used to determine PDC activity as previously described (Constantin-Teodosiu et al, 1991). Briefly, the activity of PDC in its dephosphorylated active form (PDCa) was assayed in a buffer containing NaF and dichloroacetate (DCA) and was expressed as rate of acetyl-CoA formation (mmol·min^1·(kg wet muscle)^−1 or nmol·min^1·(mg protein)^−1) at 37° C. Protein concentrations were determined using the method of Peterson (1977). […]
smiles,measurement,setting,value
C[N+](C)(C)C[C@H](O)CC(=O)[O-] [L-carnitine],whole body glucose disposal,[1]; 80 min recovery period following the clamp,37.2 ± 3.5 g
same,whole body glucose disposal,"[1]; over the 6 h clamp, n=7",316.8 ± 15.0 g
same,total amount of glucose infused,[1]; whole visit (CON approximately 330 g),~350 g
same,muscle glycogen content,"[2]; 24 h after commencement of the insulin infusion, P<0.001 vs pre, P<0.01 vs CON",736±24 mmol·(kg dm)^−1
same,difference in whole body muscle glycogen content between CON and CARN visits,[2]; assuming skeletal muscle contributes to 40% of total body mass,250 g
same,skeletal muscle glucose-6-phosphate content,[2]; during each visit,No significant differences
same,increase in muscle glycogen content compared with CON,[2]; following an overnight fast (24 h),30%
same,muscle LCACoA content,[2]; following morning (24 h) in the CARN visit,returned to basal
same,muscle LCACoA content greater than CON,[2],40%
same,muscle LCACoA content greater than CON,[2]; listed as CARN,39%
same,skeletal muscle lactate content,[2]; following the CARN infusion visit (CON increased 56%),unchanged
same,decrease in muscle lactate content,"[2]; post infusion, 6 hour clamp",40%
same,muscle glycogen content,"[2]; post infusion, resting 487±23, P<0.01",651±37 mmol·(kg dm)^−1
same,skeletal muscle total carnitine (TC) content,"[3]; 24 h (following morning), not significantly different from pre infusion value",25.1±2.2 mmol·(kg dm)^−1
same,muscle free carnitine (FC) overnight,[3]; 24 h after CARN infusion visit,retuning to basal
same,skeletal muscle total carnitine (TC) content,"[3]; after 5 h L-carnitine infusion during hyperinsulinaemia, pre infusion 22.5±2.0, P<0.01",26.6±1.6 mmol·(kg dm)^−1
same,change in muscle acetyl carnitine (AC),[3]; during the CARN infusion visit,no change
same,increase in muscle free carnitine (FC),"[3]; during the CARN infusion visit, P<0.05",17%
same,skeletal muscle long chain acyl carnitine,[3]; following infusion visit,unchanged
same,increase in skeletal muscle TC,[3]; post vs pre 5 h L-carnitine infusion during hyperinsulinaemia,15%
same,plasma FFA concentration,[4]; by 24 h,0.19 ± 0.02 mmol/L
same,plasma FFA concentration,"[4]; maintained during the insulin clamp, basal 0.30±0.04",0.046 ± 0.01 mmol/L
same,post infusion PDC activity less than CON,[5],30%
same,post infusion PDC activity less than CON,[5]; listed as CARN,31%
same,muscle PDC activity,"[5]; pre 0.43±0.07, P<0.01",0.74±0.06 mmol·min^−1·(kg wm)^−1
same,muscle PDC activity,[5]; pre 4.2±1.6,4.1±0.9 nmol·min^−1·(mg protein)^−1
